Measured values as given in the NIST ThermoML archive (doi:10.1016/j.jct.2018.09.009).
± gives the expanded uncertainty stated by the source.

Assays:
[1] = molar heat capacity at constant volume; xn = mol fraction of the nth substance listed; settings: Liquid, Vacuum adiabatic calorimetry
[2] = xn = mol fraction of the nth substance listed; settings: Liquid, isochoric method

C=C(F)C(F)(F)F [2,3,3,3-tetrafluoro-1-propene] + CCC
Settings	mass density [kg/m3]	molar heat capacity at constant volume [J/K/mol]
[1], 255.48 K, 2690 kPa, x1 = 0.607	–	81.79 ± 1.6
[1], 257.09 K, 2443 kPa, x1 = 0.825	–	89.48 ± 1.7
[1], 257.86 K, 4335 kPa, x1 = 0.607	–	82.48 ± 1.6
[1], 259.43 K, 4057 kPa, x1 = 0.825	–	89.48 ± 1.7
[1], 260.23 K, 5972 kPa, x1 = 0.607	–	82.92 ± 1.6
[1], 261.79 K, 5682 kPa, x1 = 0.825	–	90.4 ± 1.7
[1], 262.6 K, 7603 kPa, x1 = 0.607	–	82.74 ± 1.6
[1], 264.12 K, 7292 kPa, x1 = 0.825	–	90.81 ± 1.7
[1], 264.95 K, 9223 kPa, x1 = 0.607	–	83.87 ± 1.6
[1], 266.43 K, 8891 kPa, x1 = 0.825	–	90.2 ± 1.7
[1], 267.27 K, 10823 kPa, x1 = 0.607	–	83.61 ± 1.6
[1], 268.75 K, 10488 kPa, x1 = 0.825	–	91.52 ± 1.7
[1], 269.57 K, 12416 kPa, x1 = 0.607	–	84.82 ± 1.6
[1], 271.06 K, 12087 kPa, x1 = 0.825	–	91.21 ± 1.7
[1], 275.52 K, 2097 kPa, x1 = 0.825	–	93.05 ± 1.8
[1], 276.02 K, 1993 kPa, x1 = 0.607	–	87.59 ± 1.6
[1], 277.84 K, 3440 kPa, x1 = 0.825	–	93.86 ± 1.8
[1], 278.37 K, 3320 kPa, x1 = 0.607	–	87.07 ± 1.6
[1], 280.2 K, 4817 kPa, x1 = 0.825	–	94.67 ± 1.8
[1], 280.75 K, 4661 kPa, x1 = 0.607	–	88.46 ± 1.6
[1], 282.57 K, 6197 kPa, x1 = 0.825	–	95.49 ± 1.8
[1], 283.13 K, 6012 kPa, x1 = 0.607	–	88.11 ± 1.6
[1], 284.92 K, 7561 kPa, x1 = 0.825	–	95.18 ± 1.8
[1], 285.51 K, 7357 kPa, x1 = 0.607	–	88.54 ± 1.6
[1], 287.24 K, 8908 kPa, x1 = 0.825	–	95.69 ± 1.8
[1], 287.89 K, 8694 kPa, x1 = 0.607	–	88.89 ± 1.7
[1], 289.57 K, 10249 kPa, x1 = 0.825	–	96.1 ± 1.8
[1], 290.27 K, 10038 kPa, x1 = 0.607	–	89.15 ± 1.6
[1], 291.9 K, 11593 kPa, x1 = 0.825	–	97.32 ± 1.8
[1], 292.66 K, 11390 kPa, x1 = 0.607	–	89.15 ± 1.6
[1], 295.03 K, 12722 kPa, x1 = 0.607	–	89.41 ± 1.7
[1], 295.93 K, 1917 kPa, x1 = 0.825	–	96.81 ± 1.8
[1], 298.32 K, 3042 kPa, x1 = 0.825	–	97.73 ± 1.8
[1], 300.77 K, 4193 kPa, x1 = 0.825	–	97.63 ± 1.8
[1], 302.78 K, 1793 kPa, x1 = 0.607	–	91.49 ± 1.7
[1], 303.23 K, 5349 kPa, x1 = 0.825	–	97.53 ± 1.8
[1], 305.28 K, 2835 kPa, x1 = 0.607	–	91.83 ± 1.6
[1], 305.69 K, 6504 kPa, x1 = 0.825	–	99.26 ± 1.8
[1], 307.82 K, 3898 kPa, x1 = 0.607	–	91.4 ± 1.6
[1], 308.14 K, 7659 kPa, x1 = 0.825	–	98.75 ± 1.8
[1], 310.37 K, 4961 kPa, x1 = 0.607	–	92.35 ± 1.6
[1], 310.6 K, 8808 kPa, x1 = 0.825	–	100.68 ± 1.8
[1], 312.91 K, 6022 kPa, x1 = 0.607	–	93.48 ± 1.7
[1], 313.06 K, 9957 kPa, x1 = 0.825	–	100.58 ± 1.8
[1], 314.95 K, 2140 kPa, x1 = 0.285	–	84.58 ± 1.5
[1], 315.46 K, 7086 kPa, x1 = 0.607	–	93.82 ± 1.7
[1], 315.53 K, 11107 kPa, x1 = 0.825	–	102.31 ± 1.9
[1], 317.06 K, 2127 kPa, x1 = 0.521	–	93.58 ± 1.9
[1], 317.4 K, 3029 kPa, x1 = 0.285	–	85.48 ± 1.6
[1], 318.01 K, 8150 kPa, x1 = 0.607	–	94.52 ± 1.7
[1], 319.49 K, 2066 kPa, x1 = 0.825	–	102.21 ± 1.8
[1], 319.6 K, 2994 kPa, x1 = 0.521	–	93.99 ± 1.8
[1], 319.85 K, 3919 kPa, x1 = 0.285	–	86.63 ± 1.6
[1], 320.54 K, 9207 kPa, x1 = 0.607	–	95.55 ± 1.7
[1], 322.06 K, 2960 kPa, x1 = 0.825	–	103.02 ± 1.8
[1], 322.15 K, 3867 kPa, x1 = 0.521	–	94.07 ± 1.8
[1], 322.29 K, 4807 kPa, x1 = 0.285	–	87.15 ± 1.6
[1], 323.08 K, 10263 kPa, x1 = 0.607	–	96.25 ± 1.7
[1], 324.62 K, 3854 kPa, x1 = 0.825	–	104.35 ± 1.9
[1], 324.7 K, 4739 kPa, x1 = 0.521	–	94.55 ± 1.8
[1], 324.78 K, 5712 kPa, x1 = 0.285	–	87.47 ± 1.6
[1], 325.63 K, 11326 kPa, x1 = 0.607	–	96.68 ± 1.7
[1], 327.17 K, 4744 kPa, x1 = 0.825	–	105.16 ± 1.9
[1], 327.23 K, 5608 kPa, x1 = 0.521	–	95.28 ± 1.8
[1], 327.29 K, 6626 kPa, x1 = 0.285	–	87.72 ± 1.6
[1], 329.73 K, 5637 kPa, x1 = 0.825	–	105.87 ± 1.9
[1], 329.76 K, 6474 kPa, x1 = 0.521	–	95.44 ± 1.8
[1], 329.79 K, 7534 kPa, x1 = 0.285	–	87.53 ± 1.6
[1], 332.28 K, 8436 kPa, x1 = 0.285	–	87.98 ± 1.6
[1], 332.3 K, 6534 kPa, x1 = 0.825	–	105.97 ± 1.9
[1], 332.3 K, 7345 kPa, x1 = 0.521	–	94.79 ± 1.8
[1], 334.76 K, 9337 kPa, x1 = 0.285	–	88.36 ± 1.7
[1], 334.85 K, 7427 kPa, x1 = 0.825	–	106.28 ± 1.9
[1], 334.85 K, 8221 kPa, x1 = 0.521	–	95.92 ± 1.8
[1], 337.25 K, 10238 kPa, x1 = 0.285	–	88.81 ± 1.7
[1], 337.4 K, 8319 kPa, x1 = 0.825	–	106.89 ± 1.9
[1], 337.4 K, 9098 kPa, x1 = 0.521	–	96.32 ± 1.8
[1], 339.71 K, 11132 kPa, x1 = 0.285	–	88.87 ± 1.7
[1], 339.93 K, 9963 kPa, x1 = 0.521	–	96.24 ± 1.9
[1], 339.94 K, 9209 kPa, x1 = 0.825	–	106.69 ± 1.9
[1], 342.17 K, 12023 kPa, x1 = 0.285	–	89.07 ± 1.7
[1], 342.44 K, 10822 kPa, x1 = 0.521	–	96.32 ± 1.8
[1], 342.47 K, 10092 kPa, x1 = 0.825	–	106.89 ± 1.9
[1], 344.64 K, 12917 kPa, x1 = 0.285	–	89.19 ± 1.7
[1], 344.94 K, 11680 kPa, x1 = 0.521	–	96.56 ± 1.8
[1], 345.02 K, 10985 kPa, x1 = 0.825	–	107.2 ± 1.9
[1], 347.09 K, 13803 kPa, x1 = 0.285	–	89.32 ± 1.7
[1], 347.44 K, 12532 kPa, x1 = 0.521	–	96.89 ± 1.8
[1], 347.55 K, 11870 kPa, x1 = 0.825	–	106.38 ± 1.9
[2], 254.28 K, 1867 kPa, x1 = 0.607	969.9 ± 5.8	–
[2], 255.92 K, 1645 kPa, x1 = 0.825	1109.8 ± 6.7	–
[2], 256.67 K, 3513 kPa, x1 = 0.607	969.4 ± 5.8	–
[2], 258.25 K, 3241 kPa, x1 = 0.825	1109.2 ± 6.7	–
[2], 259.05 K, 5156 kPa, x1 = 0.607	968.9 ± 5.8	–
[2], 260.61 K, 4872 kPa, x1 = 0.825	1108.7 ± 6.7	–
[2], 261.41 K, 6787 kPa, x1 = 0.607	968.5 ± 5.8	–
[2], 262.96 K, 6492 kPa, x1 = 0.825	1108.1 ± 6.7	–
[2], 263.78 K, 8419 kPa, x1 = 0.607	968 ± 5.8	–
[2], 265.27 K, 8092 kPa, x1 = 0.825	1107.6 ± 6.7	–
[2], 266.11 K, 10027 kPa, x1 = 0.607	967.5 ± 5.8	–
[2], 267.59 K, 9690 kPa, x1 = 0.825	1107 ± 6.7	–
[2], 268.42 K, 11618 kPa, x1 = 0.607	967 ± 5.8	–
[2], 269.9 K, 11286 kPa, x1 = 0.825	1106.5 ± 6.7	–
[2], 270.72 K, 13214 kPa, x1 = 0.607	966.5 ± 5.8	–
[2], 272.22 K, 12888 kPa, x1 = 0.825	1105.9 ± 6.7	–
[2], 290.26 K, 1730 kPa, x1 = 0.521	821.2 ± 4.9	–
[2], 292.5 K, 2803 kPa, x1 = 0.521	820.9 ± 4.9	–
[2], 294.78 K, 3896 kPa, x1 = 0.521	820.6 ± 4.9	–
[2], 297.13 K, 5024 kPa, x1 = 0.521	820.3 ± 4.9	–
[2], 299.47 K, 6148 kPa, x1 = 0.521	820 ± 4.9	–
[2], 301.86 K, 7296 kPa, x1 = 0.521	819.7 ± 4.9	–
[2], 304.23 K, 8438 kPa, x1 = 0.521	819.4 ± 4.9	–
[2], 306.62 K, 9582 kPa, x1 = 0.521	819.1 ± 4.9	–
[2], 309.04 K, 10744 kPa, x1 = 0.521	818.8 ± 4.9	–
[2], 311.5 K, 11920 kPa, x1 = 0.521	818.5 ± 4.9	–
[2], 313.73 K, 1699 kPa, x1 = 0.285	626 ± 3.8	–
[2], 313.86 K, 13057 kPa, x1 = 0.521	818.2 ± 4.9	–
[2], 316.16 K, 2581 kPa, x1 = 0.285	625.9 ± 3.8	–
[2], 318.63 K, 3477 kPa, x1 = 0.285	625.7 ± 3.8	–
[2], 321.06 K, 4361 kPa, x1 = 0.285	625.5 ± 3.8	–
[2], 323.51 K, 5252 kPa, x1 = 0.285	625.3 ± 3.8	–
[2], 326.04 K, 6172 kPa, x1 = 0.285	625.1 ± 3.8	–
[2], 328.54 K, 7079 kPa, x1 = 0.285	624.9 ± 3.8	–
[2], 331.04 K, 7988 kPa, x1 = 0.285	624.7 ± 3.8	–
[2], 333.51 K, 8883 kPa, x1 = 0.285	624.5 ± 3.8	–
[2], 336.01 K, 9790 kPa, x1 = 0.285	624.3 ± 3.8	–
[2], 338.48 K, 10686 kPa, x1 = 0.285	624.1 ± 3.8	–
[2], 340.94 K, 11578 kPa, x1 = 0.285	624 ± 3.8	–
[2], 343.4 K, 12468 kPa, x1 = 0.285	623.8 ± 3.8	–
[2], 345.88 K, 13366 kPa, x1 = 0.285	623.6 ± 3.8	–
[2], 348.3 K, 14239 kPa, x1 = 0.285	623.4 ± 3.8	–
